pIC50, pKi: −log10 of the molar value. “Also recorded” adds a separate entry of the source. Blank lines part the entries; values can stand above or below the molecule they belong to. *1 amine or outer side, *2 acyl side, *3 side chain or, on linkers, in order; H or OH if unused. Where a SMILES comes first, the peptide text is derived from it. Where no end group is shown, it is not given here. [ ]: non-standard residue; d: D form. The star is where a group is joined. ξ: configuration not given here. ξ(4-Aminopyrrolidine-3-CO) = O=C(C1CNCC1N[*:1])[*:2]; NH(1S,2S-2-CONH2-cPent) = NC(=O)[C@H]1CCC[C@@H]1N*; ACPC(1S,2S) = N[C@H]1CCC[C@@H]1C(=O)*; X1 = O=C([C@H]1CCC[C@@H]1N[*:1])[*:2]; X2 = O=C([C@H]1CNC[C@@H]1N[*:1])[*:2]; Aib = CC(C)(N)C(=O)O
Legend:
[1] = biological target: T1, HER2 (Homo sapiens, UniProt P04626); conditions: cited from earlier work
[2] = biological target: T2, VEGF (Homo sapiens, UniProt P15692); assay: VEGF competition fluorescence polarization (FP) assay; assay type: binding; conditions: for binding to VEGF (in words): competition FP assay
T2 construct: made in house
T2 sequence (P15692 27-191 isoform P15692-4): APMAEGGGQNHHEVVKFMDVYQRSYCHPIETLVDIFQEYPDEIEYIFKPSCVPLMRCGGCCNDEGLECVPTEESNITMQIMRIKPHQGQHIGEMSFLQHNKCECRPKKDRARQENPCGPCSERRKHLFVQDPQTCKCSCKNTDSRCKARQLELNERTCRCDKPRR
Experimental: Inhibitors of the VEGF/VEGFR interaction were evaluated using VEGF direct binding and competition fluorescence polarization (FP) assays, as previously described (Peterson, K. J. et al., Anal. Biochem. 2008, 378, 8-14), but using a modified tracer. […] DMSO stock solutions of α- and α/β-peptide inhibitors were prepared and concentration determined by UV absorbance at 280 nm. Extinction coefficients for α- and α/β-peptides were calculated based on the number of tryptophans (ε280=5690 M^−1 cm^−1), tyrosines (ε280=1280 M^−1 cm^−1), and cystines (ε280=120 M^−1 cm^−1) in each primary sequence (Gill, S. C, et al. Anal. Biochem. 1989, 182, 319-326). […] Each condition was run in duplicate in each assay. Inhibition constants (Ki) were determined from FP data using methods described for a competitive binding model with GraphPad Prism 4.0 (Peterson, K. J. et al., Anal. Biochem. 2008, 378, 8-14). Reported Ki values are representative values from multiple replicate assays.
FP assays were only run once to test binding affinity.

[3] = biological target: T1, HER2; assay: Z-HER2 mimics binding, ELISA 3; conditions: read-out: ELISA 3 Ki calcd.
[4] = Half-life of Z-HER2 mimics (Table 16); assay type: in vitro ADME; conditions: conditions not given; read-out: half-life t1/2
[5] = biological target: T3, TNFα (binding to immobilized TNFR1) (Homo sapiens, UniProt P01375); assay: TNFα/TNFR competition ELISA; conditions: Table 14; read-out: TNFa-TNFR ELISA IC50
T3 construct: purchased R&D Systems 210-TA-020 (TNFα); 636-R1-025 (sTNF RI)
Experimental: The binding of α/β-peptides to TNFα to inhibit binding to TNFR was determined by competition ELISA. […] After immobilization, the plate was washed with PBS/0.05% TWEEN, blocked with 1% BSA in PBS for 2 hours, and then washed with PBS/0.05% TWEEN. Serial dilutions of soluble α/β-peptides in DMSO were prepared (final concentrations=0.04 nM-10 μM), and 10 μL of each of these solutions added to 240 μL of recombinant human TNFα (R&D Systems, 210-TA-020, final concentration=0.080 μg/mL) in PBS/0.05% TWEEN. The α/β-peptides were allowed to pre-incubate with TNFα for 3 hours and then 50 μL of each α/β-peptide/TNFα mixture was added to wells on the ELISA plate and incubated at room temperature for 1 hour. The plate was then washed with PBS/0.05% TWEEN and the presence of TNFα detected by adding 100 μL of a 1:500 dilution of Human TNFα Biotinylated Affinity Purified PAb (R&D Systems, BAF210) and incubating at room temperature for 1 hour. […] Plates were read during the time course of the reaction on a BioTek Synergy 2 microplate reader, reading A405. […] To compare the ability of each soluble α/β-peptide to inhibit the binding of TNFα to immobilized TNFR, IC50 values were calculated by fitting the ELISA absorbance data to a sigmoidal dose-response equation.

[6] = system: VEGF-induced proliferation of human umbilical vein endothelial cells (HUVECs); assay: HUVEC proliferation assay (VEGF165-induced, Click-iT EdU); assay type: cell-based; conditions: 50 μM peptide, 10 ng/mL VEGF165
Experimental: Human umbilical vein endothelial cells (HUVECs) (Lonza, Basel, Switzerland, catalog no. CC2519) were cultured using Medium 199 (M199) (Mediatech, Herndon, Va., USA; 50-050-PB) supplemented with penicillin/steptomycin (HyClone-brand, Thermo Fisher Scientific, Herndon, Va., USA; SV30010) and EGM-2 (Lonza, CC4176) at 37° C. in 5% CO2. Cells were grown to 60-80% confluence and then serum-starved in M199 with 2% cosmic calf serum (CCS) (HyClone-brand, SH30087) overnight. […] Filter sterilized stock solutions of α- or α/β-peptide in PBS were made at a concentration of 200 μM, as determined by UV absorbance. Appropriate dilutions of α- or α/β-peptide were made with PBS, and the resulting solutions were premixed with recombinant human VEGF165 (R&D Systems, 293-VE-010) or recombinant human FGF basic (FGF-2) (R&D Systems, a wholly owned subsidiary of TECHNE Corporation, Minneapolis, Minn., USA; 233-FB-025) in M199/2% CCS and incubated at room temperature for 1 hour. […] Relative cell proliferation was quantified using the “Click-iT”-brand EdU Alexa Flour 488 Assay (Life Technologies, C10337). […] EdU incorporation was detected using Life Technologies' assay protocol. […] Images were analyzed using NIS-Elements AR Imaging Software (Nikon Instruments, Inc., Melville, N.Y., USA) to count the number of proliferating cells (EdU stained) and total number of cells (Hoechst stained). […]

[7] = Aqueous solubility (PBS)

T3 sequence (P01375 77-233 limits assumed): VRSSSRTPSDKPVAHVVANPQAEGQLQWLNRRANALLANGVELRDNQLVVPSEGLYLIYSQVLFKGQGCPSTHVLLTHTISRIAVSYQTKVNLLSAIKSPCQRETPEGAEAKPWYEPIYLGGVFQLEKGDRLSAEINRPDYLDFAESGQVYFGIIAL

Molecule: 82 (VENKFNKEMRNAYWEIALLPNLNNQQKRAFIRSLYDDPG; listed as Homo sapiens) [compound 82]
reported Kd [1]: no blinding

pKi ([2]; Table 5, early mimics, FP assay run once): < 4.30
Molecule: CC[C@H](C)[C@H](NC(=O)[C@H](C)NC(=O)[C@H]1CCC[C@@H]1NC(=O)[C@H](C)NC(=O)[C@H](CC(N)=O)NC(=O)[C@H](Cc1c[nH]cn1)NC(=O)[C@H]1CCC[C@@H]1NC(=O)[C@H](CCC(=O)O)NC(=O)[C@@H](N)CCCCN)C(=O)N[C@@H](CCC(=O)O)C(=O)N[C@H](C(=O)N[C@@H](C)C(=O)N[C@@H](CC(C)C)C(=O)N[C@@H](CC(C)C)C(=O)N1CCC[C@H]1C(=O)N[C@@H](CC(N)=O)C(=O)N[C@@H](CC(C)C)C(=O)N[C@@H](CC(N)=O)C(=O)N[C@@H](CC(=O)O)C(=O)N[C@@H](CCC(N)=O)C(=O)N[C@@H](CCC(N)=O)C(=O)N[C@@H](Cc1ccccc1)C(=O)N[C@@H](Cc1c[nH]cn1)C(=O)N[C@@H](C)C(=O)N[C@H]1CCC[C@@H]1C(=O)N[C@H](C(=O)N[C@@H](Cc1c[nH]c2ccccc12)C(=O)N[C@H]1CCC[C@@H]1C(=O)N[C@@H](CC(C)C)C(=O)N[C@H](C(=O)N[C@@H](CC(=O)O)C(=O)N[C@@H](CC(=O)O)C(=O)N1CCC[C@H]1C(=O)N[C@@H](CO)C(N)=O)[C@@H](C)CC)[C@@H](C)CC)[C@@H](C)CC [E4, KEXHNAXAIEIALLPNLNDQQFHAXIWXLIDDPS] (H-KE[X1]HNA[X1]AIEIALLPNLNDQQFHA[X1]IW[X1]LIDDPS-NH2)

pKi [3]: 7.48
half-life [4]: 4.33 h
Molecule: CC[C@H](C)[C@H](NC(=O)C1CNCC1NC(=O)[C@H](CCCNC(=N)N)NC(=O)[C@@H](NC(=O)[C@H](CCCCN)NC(=O)C(C)(C)NC(=O)[C@H](CCCNC(=N)N)NC(=O)[C@H](CCCCN)NC(=O)[C@H](CCC(N)=O)NC(=O)C(C)(C)NC(=O)[C@H](CC(N)=O)NC(=O)[C@H](CC(N)=O)NC(=O)[C@H](CC(C)C)NC(=O)[C@H](CC(N)=O)NC(=O)[C@@H]1CCCN1C(=O)[C@H](CC(=O)O)NC(=O)[C@H](CC(C)C)NC(=O)[C@H](C)NC(=O)C(C)(C)NC(=O)[C@H](CCC(=O)O)NC(=O)[C@H](Cc1c[nH]c2ccccc12)NC(=O)[C@H](Cc1ccc(O)cc1)NC(=O)[C@H](CCCNC(=N)N)NC(=O)C1CNCC1NC(=O)[C@H](CCCNC(=N)N)NC(=O)[C@H](CCSC)NC(=O)[C@H]1CCC[C@@H]1NC(=O)[C@H](CCCCN)NC(=O)[C@H](CC(N)=O)NC(=O)[C@@H](N)Cc1ccccc1)[C@@H](C)CC)C(=O)N[C@@H](Cc1ccc(O)cc1)C(=O)N[C@@H](CC(=O)O)C(=O)N[C@@H](CC(=O)O)C(=O)N1CCC[C@H]1C(=O)N[C@@H](CO)C(N)=O (stereo partly shown) [compound 97] (H-FNK[X1]MR[ξ(4-Aminopyrrolidine-3-CO)]RYWE[Aib]ALDPNLNN[Aib]QKR[Aib]KIR[ξ(4-Aminopyrrolidine-3-CO)]IYDDPS-NH2)

pIC50 [5]: 6.00
Molecule: CC[C@H](C)[C@H](NC(=O)[C@H](CCCNC(=N)N)NC(=O)[C@H](Cc1c[nH]c2ccccc12)NC(=O)CNC(=O)[C@@H](N)CC(C)C)C(=O)NCC(=O)N[C@@H](CCC(=O)O)C(=O)NC(C)(C)C(=O)NCC(=O)N[C@H](C(=O)N[C@@H](CC(=O)O)C(=O)N1CCC[C@H]1C(=O)N[C@@H](CC(N)=O)C(=O)N[C@@H](CC(C)C)C(=O)N[C@@H](CC(N)=O)C(=O)N[C@@H](Cc1c[nH]cn1)C(=O)N[C@@H](CCC(N)=O)C(=O)N[C@@H](CCC(N)=O)C(=O)N[C@@H](Cc1ccccc1)C(=O)N[C@@H](CCCNC(=N)N)C(=O)NC(C)(C)C(=O)N[C@@H](CCCCN)C(=O)N[C@H](C(=O)N[C@@H](CC(C)C)C(=O)N[C@H]1CNC[C@@H]1C(=O)N[C@H](C(=O)N[C@@H](Cc1c[nH]c2ccccc12)C(=O)N[C@H]1CCC[C@@H]1C(N)=O)[C@@H](C)CC)[C@@H](C)CC)[C@@H](C)O [α/β-TNFα-14, LGWRIGEAGTDPNLNHQQFRAKILZIWX-NH2] (H-LGWRIGE[Aib]GTDPNLNHQQFR[Aib]KIL[X2]IW-{NH(1S,2S-2-CONH2-cPent)}; N-terminus assumed)

pIC50 [5]: 6.29
Molecule: CC[C@H](C)[C@H](NC(=O)[C@H](CCCNC(=N)N)NC(=O)[C@H](Cc1c[nH]c2ccccc12)NC(=O)CNC(=O)[C@H](CC(C)C)NC(=O)[C@H]1CCC[C@@H]1N)C(=O)NCC(=O)N[C@@H](CCC(=O)O)C(=O)NC(C)(C)C(=O)NCC(=O)N[C@H](C(=O)N[C@@H](CC(=O)O)C(=O)N1CCC[C@H]1C(=O)N[C@@H](CC(N)=O)C(=O)N[C@@H](CC(C)C)C(=O)N[C@@H](CC(N)=O)C(=O)N[C@@H](Cc1c[nH]cn1)C(=O)N[C@@H](CCC(N)=O)C(=O)N[C@@H](CCC(N)=O)C(=O)N[C@@H](Cc1ccccc1)C(=O)N[C@@H](CCCNC(=N)N)C(=O)NC(C)(C)C(=O)N[C@@H](CCCCN)C(=O)N[C@H](C(=O)N[C@@H](CC(C)C)C(=O)N[C@H]1CNC[C@@H]1C(=O)N[C@H](C(=O)N[C@@H](Cc1c[nH]c2ccccc12)C(=O)N[C@H]1CCC[C@@H]1C(N)=O)[C@@H](C)CC)[C@@H](C)CC)[C@@H](C)O [α/β-TNFα-16, XLGWRIGEAGTDPNLNHQQFRAKILZIWX-NH2] ({ACPC(1S,2S)}-LGWRIGE[Aib]GTDPNLNHQQFR[Aib]KIL[X2]IW-{NH(1S,2S-2-CONH2-cPent)}; N-terminus assumed)

Molecule: KEMHNAYAIEIALLPNLNDQQFHAFIWSLIDDPS-NH2 [Z-VEGF (7-40)]
binding to VEGF (in words) [2]: showed no binding

Molecule: VDNKFNKEMHNAYAIEIALLPNLNDQQFHAFIWSLIDD-NH2 [Z-VEGF (1-38)]
binding to VEGF (in words) [2]: shows no binding
binding to VEGF (in words) ([2]; listed as Z-VEGF(1-38)): complete loss of binding

Molecule: VDNKFNKEQHNARAIEAALDPNLNDQQFHAKIWSIIDD-NH2 [α-VEGF-1]
binding to VEGF (in words) [2]: does not show binding; also recorded: did not recover binding
inhibition of VEGF-induced HUVEC proliferation (in words) [6]: does not show any inhibition
solubility in PBS at 75 μM [7]: fully soluble

Molecule: VDNKFNKEXHNZRAIEAALDPNLNDQQFHAKIWZIIXD [α/β-VEGF-1-linear]
binding to VEGF (in words) [2]: lack of binding; also recorded: essentially no binding

Reference: patent publication US9284362B2, “α/β-peptide mimics of Z-domain peptides” (Wisconsin Alumni Research Foundation, priority 2014, dated 2016)
